From patent US4663329A, “Thienopyridinone derivatives and anti-bacterial compositions containing them” (Sanofi, priority 1984, dated 1987)
≈ marks a conversion by molar mass, not a printed value. Read-outs that look alike come from different tables or passages of the source.

What was measured:
Type in all cases: cell-based
[1] = test system: Staphylococcus aureus 53154 IP; test: In vitro antibacterial activity, MIC, Staphylococcus aureus 53154 IP
Protocol: (§1) Tests carried out in vitro in accordance with the experimental procedure described hereunder have provided evidence of the antibacterial activity in question.
(§2) For this purpose, the M.I.C. were determined i.e. the minimal inhibiting concentrations of the compound under study acting on the growth of the bacteria at 37° C.
(§3) The serial dilutions method was used utilizing a MUELLER HINTON gelose medium at pH=7.4 and a bacterial inoculum of 10^4 units forming colonies. This inoculum was applied to the gelose by means of a multiple sowing device.
(§4) A scale of concentrations ranging from 100 to 0.05 μg/ml of compound to be studied was used starting from mother solutions titrating 1000 μg/ml, all the subsequent dilutions being effected in distilled water.

[2] = test system: Streptococcus faecalis 5855 IP; test: In vitro antibacterial activity, MIC, Streptococcus faecalis 5855 IP; settings: Enterococcus faecalis, 37° C., pH=7.4, inoculum 10^4, read-out: MIC
Protocol: as §1, §2, §3, §4

[3] = test system: Bacillus subtilis ATCC 6633; test: In vitro antibacterial activity, MIC, Bacillus subtilis ATCC 6633; settings: ATCC6633
Protocol: as §1, §2, §3, §4

[4] = test system: Escherichia coli 54127 IP; test: In vitro antibacterial activity, MIC, Escherichia coli 54127 IP
Protocol: as §1, §2, §3, §4

[5] = test system: Escherichia coli SOL RL 90; test: In vitro antibacterial activity, MIC, Escherichia coli SOL RL 90; settings: SOLRL90
Protocol: as §1, §2, §3, §4

[6] = test system: Citrobacter freundii GN 346; test: In vitro antibacterial activity, MIC, Citrobacter freundii GN 346; settings: GN346
Protocol: as §1, §2, §3, §4

[7] = test system: Proteus vulgaris RL 99 bis; test: In vitro antibacterial activity, MIC, Proteus vulgaris RL 99 bis; settings: RL99BIS; Proteus vulgaris RL 99 bis; 37° C., pH=7.4, inoculum 10^4; read-out: MIC
Protocol: as §1, §2, §3, §4

[8] = test system: Proteus mirabilis ATCC 21100; test: In vitro antibacterial activity, MIC, Proteus mirabilis ATCC 21100; settings: ATCC21100
Protocol: as §1, §2, §3, §4

Proteus morganii 1510 = test: In vitro antibacterial activity, MIC, Proteus morganii 1510; settings: Morganella morganii
Protocol: as §1, §2, §3, §4

[9] = test system: Providencia stuartii 5158; test: In vitro antibacterial activity, MIC, Providencia stuartii 5158
Protocol: as §1, §2, §3, §4

[10] = test system: Serratia liquefaciens 376; test: In vitro antibacterial activity, MIC, Serratia liquefaciens 376; settings: 37° C., pH=7.4, inoculum 10^4, read-out: MIC
Protocol: as §1, §2, §3, §4

[11] = test system: Klebsiella pneumoniae ATCC 10031; test: In vitro antibacterial activity, MIC, Klebsiella pneumoniae ATCC 10031; settings: ATCC10031
Protocol: as §1, §2, §3, §4

[12] = test system: Klebsiella pneumoniae R 30; test: In vitro antibacterial activity, MIC, Klebsiella pneumoniae R 30; settings: R30
Protocol: as §1, §2, §3, §4

[13] = test system: Enterobacter cloacae P 99; test: In vitro antibacterial activity, MIC, Enterobacter cloacae P 99; settings: Enterobacter cloacae, P99
Protocol: as §1, §2, §3, §4

[14] = test system: Enterobacter hafniae RO 46; test: In vitro antibacterial activity, MIC, Enterobacter hafniae RO 46; settings: Hafnia alvei, RO46
Protocol: as §1, §2, §3, §4

Shigella sonnei R 018 = test: In vitro antibacterial activity, MIC, Shigella sonnei R 018; settings: R018, 37° C., pH=7.4, inoculum 10^4
Protocol: as §1, §2, §3, §4

[15] = test system: Salmonella typhimurium A 222 IP; test: In vitro antibacterial activity, MIC, Salmonella typhimurium A 222 IP; settings: Salmonella enterica
Protocol: as §1, §2, §3, §4

[16] = test system: Salmonella typhi ATCC 6539; test: In vitro antibacterial activity, MIC, Salmonella typhi ATCC 6539; settings: Salmonella enterica
Protocol: as §1, §2, §3, §4

[17] = test system: Bordetella bronchiseptica ATCC 4617; test: In vitro antibacterial activity, MIC, Bordetella bronchiseptica ATCC 4617; settings: ATCC4617, 37° C., pH=7.4, inoculum 10^4, read-out: MIC
Protocol: as §1, §2, §3, §4

[18] = test system: Pseudomonas aeruginosa 8203; test: In vitro antibacterial activity, MIC, Pseudomonas aeruginosa 8203; settings: 37° C., pH=7.4, inoculum 10^4, read-out: MIC
Protocol: as §1, §2, §3, §4

[19] = test system: Acinetobacter calcoaceticus C 1733; test: In vitro antibacterial activity, MIC, Acinetobacter calcoaceticus C 1733; settings: C1733, 37° C., pH=7.4, inoculum 10^4, read-out: MIC
Protocol: as §1, §2, §3, §4

[20] = Staphylococcus aureus 53154 IP, 37° C., pH=7.4, inoculum 10^4, read-out: MIC
[21] = Escherichia coli 54127 IP, 37° C., pH=7.4, inoculum 10^4, read-out: MIC
[22] = Escherichia coli SOL RL 90, 37° C., pH=7.4, inoculum 10^4, read-out: MIC
[23] = Proteus morganii 1510, 37° C., pH=7.4, inoculum 10^4, read-out: MIC
[24] = Providencia stuartii 5158, 37° C., pH=7.4, inoculum 10^4, read-out: MIC
[25] = Klebsiella pneumoniae ATCC 10031, 37° C., pH=7.4, inoculum 10^4, read-out: MIC
[26] = Klebsiella pneumoniae R 30, 37° C., pH=7.4, inoculum 10^4, read-out: MIC
[27] = Enterobacter hafniae RO 46, 37° C., pH=7.4, inoculum 10^4, read-out: MIC
[28] = Salmonella typhimurium A 222 IP, 37° C., pH=7.4, inoculum 10^4, read-out: MIC
[29] = Bacillus subtilis ATCC 6633, 37° C., pH=7.4, inoculum 10^4, read-out: MIC
[30] = Proteus mirabilis ATCC 21100, 37° C., pH=7.4, inoculum 10^4, read-out: MIC

SMILES	MIC [1, 20] [µg/mL]	MIC [2] [µg/mL]	MIC ([3]; Bacillus subtilis) [µg/mL]	MIC [4, 21] [µg/mL]	MIC [5, 22] [µg/mL]	MIC ([6]; Citrobacter freundii) [µg/mL]	MIC [7] [µg/mL]	MIC ([8]; Proteus mirabilis) [µg/mL]	MIC (Proteus morganii 1510; [23]) [µg/mL]	MIC [9, 24] [µg/mL]	MIC [10] [µg/mL]	MIC [11, 25] [µg/mL]	MIC [12, 26] [µg/mL]	MIC [13] [µg/mL]	MIC [14, 27] [µg/mL]	MIC (Shigella sonnei R 018) [µg/mL]	MIC [16] [µg/mL]	MIC [17] [µg/mL]	MIC [18] [µg/mL]	MIC [19] [µg/mL]	other results
CCn1cc(C(=O)O)c(=O)c2cc(C=Nc3ccc(OC)cc3)sc21 [Compound G, 4,7-Dihydro-7-ethyl-2-N-(4-methoxy-phenyl)-iminomethyl-4-oxo-thieno[2,3-b]pyridine-5-carboxylic acid]	> 100	> 100	6.25 (≈ 17.5 µM)	1.56 (≈ 4.38 µM)	3.12 (≈ 8.75 µM)	6.25 (≈ 17.5 µM)	1.56 (≈ 4.38 µM)	6.25 (≈ 17.5 µM)	0.78 (≈ 2.19 µM)	12.5 (≈ 35.1 µM)	100 (≈ 281 µM)	12.5 (≈ 35.1 µM)	12.5 (≈ 35.1 µM)	6.25 (≈ 17.5 µM)	1.56 (≈ 4.38 µM)	6.25 (≈ 17.5 µM)	6.25 (≈ 17.5 µM)	> 100	> 100	> 100	MIC [15, 28]: 3.12 µg/mL (≈ 8.75 µM)
CCn1cc(C(=O)O)c(=O)c2cc(/C=N/O)sc21 [Compound B, 4,7-Dihydro-7-ethyl-2-hydroxyiminomethyl-4-oxo-thieno[2,3-b]pyridine-5-carboxylic acid, anti-isomer]	12.5 (≈ 46.9 µM)	> 100	6.25 (≈ 23.5 µM)	–	–	3.12 (≈ 11.7 µM)	0.8 (≈ 3 µM)	1.56 (≈ 5.86 µM)	0.4 (≈ 1.5 µM)	–	50 (≈ 188 µM)	–	–	6.25 (≈ 23.5 µM)	–	0.8 (≈ 3 µM)	6.25 (≈ 23.5 µM)	> 100	100 (≈ 376 µM)	> 100	MIC ([4]; Escherichia coli, 54127IP): 3.12 µg/mL (≈ 11.7 µM); MIC ([5]; Escherichia coli): 3.12 µg/mL (≈ 11.7 µM); MIC ([9]; Providencia stuartii, 5158): 6.25 µg/mL (≈ 23.5 µM); MIC ([11]; Klebsiella pneumoniae): 1.56 µg/mL (≈ 5.86 µM); MIC ([12]; Klebsiella pneumoniae): 6.25 µg/mL (≈ 23.5 µM); MIC [14]: 3.12 µg/mL (≈ 11.7 µM); MIC ([15]; TYPHIMURIUM): 3.12 µg/mL (≈ 11.7 µM)
CCn1cc(C(=O)O)c(=O)c2cc(C=NOC)sc21 [Compound D, 4,7-Dihydro-7-ethyl-2-methoxyiminomethyl-4-oxo-thieno[2,3-b]pyridine-5-carboxylic acid]	–	> 100	–	0.78 (≈ 2.78 µM)	–	3.12 (≈ 11.1 µM)	0.78 (≈ 2.78 µM)	–	–	–	50 (≈ 178 µM)	0.2 (≈ 0.714 µM)	–	1.56 (≈ 5.57 µM)	–	1.56 (≈ 5.57 µM)	3.12 (≈ 11.1 µM)	12.5 (≈ 44.6 µM)	> 100	> 100	MIC ([1]; Staphylococcus aureus, 53154IP): 1.56 µg/mL (≈ 5.57 µM); MIC [3, 29]: 0.78 µg/mL (≈ 2.78 µM); MIC ([5]; Escherichia coli): 3.12 µg/mL (≈ 11.1 µM); MIC [8, 30]: 0.78 µg/mL (≈ 2.78 µM); MIC (Proteus morganii 1510; 1510): 3.12 µg/mL (≈ 11.1 µM); MIC ([9]; Providencia stuartii, 5158): 3.12 µg/mL (≈ 11.1 µM); MIC ([12]; Klebsiella pneumoniae): 3.12 µg/mL (≈ 11.1 µM); MIC [14]: 1.56 µg/mL (≈ 5.57 µM); MIC ([15]; TYPHIMURIUM): 3.12 µg/mL (≈ 11.1 µM)
CCn1cc(C(=O)O)c(=O)c2cc(C=NOCCCN(C)C)sc21 [Compound E, 4,7-Dihydro-7-ethyl-2-(3-N,N-dimethylamino-propoxy)-iminomethyl-4-oxo-thieno[2,3-b]pyridine-5-carboxylic acid]	6.25 (≈ 17.8 µM)	100 (≈ 285 µM)	–	6.25 (≈ 17.8 µM)	25 (≈ 71.1 µM)	–	12.5 (≈ 35.6 µM)	–	25 (≈ 71.1 µM)	25 (≈ 71.1 µM)	50 (≈ 142 µM)	3.12 (≈ 8.88 µM)	25 (≈ 71.1 µM)	12.5 (≈ 35.6 µM)	6.25 (≈ 17.8 µM)	25 (≈ 71.1 µM)	25 (≈ 71.1 µM)	> 100	> 100	> 100	MIC [3, 29]: 6.25 µg/mL (≈ 17.8 µM); MIC ([6]; Citrobacter freundii GN 346, 37° C., pH=7.4, inoculum 10^4, read-out: MIC): 12.5 µg/mL (≈ 35.6 µM); MIC [8, 30]: 3.12 µg/mL (≈ 8.88 µM); MIC [15, 28]: 25 µg/mL (≈ 71.1 µM)
